In assay [1] the test system is KB. The assay can be described thus: Cytotoxicity against human KB cells incubated for 72 hrs by SRB method. The format is functional, cell-based.
The test system of assay [2] is KB. The assay is described as follows: Cytotoxicity against human Vincristine-resistant KB cells incubated for 72 hrs by SRB method. In kind it is functional, cell-based. A general note: The SRB assay estimates cell density from bound dye.

These results are taken from ChEMBL document CHEMBL4818987, “Recent advances of podophyllotoxin/epipodophyllotoxin hybrids in anticancer activity, mode of action, and structure-activity relationship: An update (2010-2020)” (Eur J Med Chem, 2020).

The term IC50 denotes the concentration needed to halve the response being measured. Low values mean greater potency, high ones weaker potency.

`COc1cc([C@@H]2c3cc4c(cc3[C@@H](SSCCO)[C@H]3COC(=O)[C@H]23)OCO4)cc(OC)c1O`: the IC50 in the assay with KB [1] and in the assay on KB [2] was 1120 nM throughout.
Turning to `COc1cc([C@@H]2c3cc4c(cc3[C@@H](SSCCCN3CCC(O)CC3)[C@H]3COC(=O)[C@H]23)OCO4)cc(OC)c1O`, the IC50 in the assay with KB [1] and in the assay with KB [2] was 1120 nM in each case.
Regarding `COc1cc([C@@H]2c3cc4c(cc3[C@@H](SSCCCN3CCOCC3)[C@H]3COC(=O)[C@H]23)OCO4)cc(OC)c1O`, the IC50 with KB [1] and in the assay with KB [2] was 1120 nM throughout.
On to `COc1cc([C@@H]2c3cc4c(cc3[C@@H](SSCCCN3CCCC3)[C@H]3COC(=O)[C@H]23)OCO4)cc(OC)c1O`, for which the IC50 with KB [1] and in the assay on KB [2] was 1120 nM each time.
As for `COc1cc([C@@H]2c3cc4c(cc3[C@@H](SSc3cccs3)[C@H]3COC(=O)[C@H]23)OCO4)cc(OC)c1O`, the 50% inhibitory concentration (IC50) in the assay on KB [1] and in the assay on KB [2] was 1120 nM throughout.
Consider `COc1cc([C@@H]2c3cc4c(cc3[C@@H](SSCCN3CCCC(O)C3)[C@H]3COC(=O)[C@H]23)OCO4)cc(OC)c1O` (stereo partly drawn), for which the IC50 in the assay on KB [1] and in the assay on KB [2] was 1120 nM in each case.
Consider `COc1cc([C@@H]2c3cc4c(cc3[C@@H](SSSCC(O)CO)[C@H]3COC(=O)[C@H]23)OCO4)cc(OC)c1O` (stereo partly drawn), for which the IC50 with KB [1] and with KB [2] was 1120 nM each time.
On to `COc1cc([C@@H]2c3cc4c(cc3[C@@H](SSSCCO)[C@H]3COC(=O)[C@H]23)OCO4)cc(OC)c1O`, for which the IC50 in the assay with KB [1] and in the assay with KB [2] was 1120 nM throughout.
On to `COc1cc([C@@H]2c3cc4c(cc3[C@@H](SS[C@@H]3O[C@@H]5O[C@@H](c6cccs6)OC[C@H]5[C@H](O)[C@H]3O)[C@H]3COC(=O)[C@H]23)OCO4)cc(OC)c1O`, for which the IC50 in the assay on KB [1] and in the assay with KB [2] was 1120 nM throughout.
Regarding `COc1cc([C@@H]2c3cc4c(cc3[C@@H](SSCC(=O)N3CCC(=O)CC3)[C@H]3COC(=O)[C@H]23)OCO4)cc(OC)c1O`, the IC50 with KB [1] and with KB [2] was 1120 nM each time.
Regarding `COc1cc([C@@H]2c3cc4c(cc3[C@@H](SSCCN3CCNCC3)[C@H]3COC(=O)[C@H]23)OCO4)cc(OC)c1O`, the IC50 in the assay with KB [1] and in the assay with KB [2] was 1120 nM in each case.
Turning to `COc1cc([C@@H]2c3cc4c(cc3[C@@H](SSCCCN3CCN(C)CC3)[C@H]3COC(=O)[C@H]23)OCO4)cc(OC)c1O`, the IC50 in the assay on KB [1] and in the assay on KB [2] was 1120 nM each time.
Turning to `COc1cc([C@@H]2c3cc4c(cc3[C@@H](SSCCN3CCOCC3)[C@H]3COC(=O)[C@H]23)OCO4)cc(OC)c1O`, the concentration for half-maximal inhibition (IC50) in the assay on KB [1] and in the assay with KB [2] was 1120 nM in each case.
Consider `COc1cc([C@@H]2c3cc4c(cc3[C@@H](SSCCCN3CCN(C(C)=O)CC3)[C@H]3COC(=O)[C@H]23)OCO4)cc(OC)c1O`, for which the IC50 in the assay with KB [1] and in the assay with KB [2] was 1120 nM in each case.
For the compound `COc1cc([C@@H]2c3cc4c(cc3[C@@H](SSCCCN(C(C)C)C(C)C)[C@H]3COC(=O)[C@H]23)OCO4)cc(OC)c1O`, the IC50 with KB [1] and in the assay on KB [2] was 1120 nM in each case.
Take `COc1cc([C@@H]2c3cc4c(cc3[C@@H](SSS[C@@H]3O[C@H](CO)[C@@H](O)[C@H](O)[C@H]3O)[C@H]3COC(=O)[C@H]23)OCO4)cc(OC)c1O`: the half-inhibitory concentration (IC50) in the assay with KB [1] and in the assay on KB [2] was 1120 nM throughout.
As to `COc1cc([C@@H]2c3cc4c(cc3[C@@H](SSc3cccnc3)[C@H]3COC(=O)[C@H]23)OCO4)cc(OC)c1O`, the IC50 with KB [1] and with KB [2] was 1120 nM each time.
With `COc1cc([C@@H]2c3cc4c(cc3[C@@H](SSCC(=O)N3CCCC(O)C3)[C@H]3COC(=O)[C@H]23)OCO4)cc(OC)c1O` (stereo partly drawn), the IC50 with KB [1] and in the assay on KB [2] was 1120 nM each time.
In the case of `COC(=O)C(N)CSS[C@@H]1c2cc3c(cc2[C@@H](c2cc(OC)c(O)c(OC)c2)[C@H]2C(=O)OC[C@@H]21)OCO3` (stereo partly drawn), the half-maximal inhibitory concentration (IC50) in the assay on KB [1] and in the assay with KB [2] was 1120 nM throughout.
For the compound `COc1cc([C@@H]2c3cc4c(cc3[C@@H](SSCC(=O)N3CCOCC3)[C@H]3COC(=O)[C@H]23)OCO4)cc(OC)c1O`, the IC50 in the assay on KB [1] and with KB [2] was 1120 nM in each case.
In the case of `COc1cc([C@@H]2c3cc4c(cc3[C@@H](SSCCN)[C@H]3COC(=O)[C@H]23)OCO4)cc(OC)c1O`, the IC50 with KB [1] and in the assay with KB [2] was 1120 nM each time.
For the compound `COc1cc([C@@H]2c3cc4c(cc3[C@@H](SSCC(=O)N3CCC(O)CC3)[C@H]3COC(=O)[C@H]23)OCO4)cc(OC)c1O`, the IC50 in the assay on KB [1] and with KB [2] was 1120 nM throughout.
`COc1cc([C@@H]2c3cc4c(cc3[C@@H](SSc3ccccn3)[C@H]3COC(=O)[C@H]23)OCO4)cc(OC)c1O`: the IC50 in the assay on KB [1] and with KB [2] was 1120 nM throughout.
Consider `COc1cc([C@@H]2c3cc4c(cc3[C@@H](SS[C@@H]3O[C@H](CO)[C@@H](O)[C@H](O)[C@H]3O)[C@H]3COC(=O)[C@H]23)OCO4)cc(OC)c1O`, for which the IC50 in the assay on KB [1] and with KB [2] was 1120 nM each time.
For `CCN(CC)CCCSS[C@@H]1c2cc3c(cc2[C@@H](c2cc(OC)c(O)c(OC)c2)[C@H]2C(=O)OC[C@@H]21)OCO3`, the IC50 with KB [1] and with KB [2] was 1120 nM throughout.
Turning to `CCSSS[C@@H]1c2cc3c(cc2[C@@H](c2cc(OC)c(O)c(OC)c2)[C@H]2C(=O)OC[C@@H]21)OCO3`, the IC50 in the assay with KB [1] and with KB [2] was 1120 nM throughout.
Turning to `COc1cc([C@@H]2c3cc4c(cc3[C@@H](SS[C@@H]3O[C@@H]5O[C@@H](C)OC[C@H]5[C@H](O)[C@H]3O)[C@H]3COC(=O)[C@H]23)OCO4)cc(OC)c1O`, the IC50 in the assay on KB [1] and with KB [2] was 1120 nM in each case.
On to `COc1cc([C@@H]2c3cc4c(cc3[C@@H](SSCC(=O)N3CCNCC3)[C@H]3COC(=O)[C@H]23)OCO4)cc(OC)c1O`, for which the IC50 in the assay with KB [1] and with KB [2] was 1120 nM in each case.
Turning to `COc1cc([C@@H]2c3cc4c(cc3[C@@H](SSCCCN3CCCCC3)[C@H]3COC(=O)[C@H]23)OCO4)cc(OC)c1O`, the IC50 in the assay on KB [1] and in the assay with KB [2] was 1120 nM in each case.
`COc1cc([C@@H]2c3cc4c(cc3[C@@H](SS[C@@H]3O[C@H](COC(C)=O)[C@H](OC(C)=O)[C@H](OC(C)=O)[C@H]3OC(C)=O)[C@H]3COC(=O)[C@H]23)OCO4)cc(OC)c1O`: the half-inhibitory concentration (IC50) in the assay on KB [1] and with KB [2] was 1120 nM throughout.
With `COc1cc([C@@H]2c3cc4c(cc3[C@@H](SSCCCN3CCCCC3CO)[C@H]3COC(=O)[C@H]23)OCO4)cc(OC)c1O` (stereo partly drawn), the IC50 in the assay with KB [1] and in the assay with KB [2] was 1120 nM throughout.
On to `COc1cc([C@@H]2c3cc4c(cc3[C@@H](SSSCCCN3CCOCC3)[C@H]3COC(=O)[C@H]23)OCO4)cc(OC)c1O`, for which the IC50 in the assay on KB [1] and in the assay on KB [2] was 1120 nM each time.
Consider `CCSS[C@@H]1c2cc3c(cc2[C@@H](c2cc(OC)c(O)c(OC)c2)[C@H]2C(=O)OC[C@@H]21)OCO3`, for which the concentration for half-maximal inhibition (IC50) with KB [1] and with KB [2] was 1120 nM in each case.
As for `COc1cc([C@@H]2c3cc4c(cc3[C@@H](SSCCCN3CCNCC3)[C@H]3COC(=O)[C@H]23)OCO4)cc(OC)c1O`, the IC50 in the assay on KB [1] and with KB [2] was 1120 nM in each case.
